Earlier results on two compounds are cited in patent US20130029862A1, “Clinical application utilizing genetic data for effective medication management” (priority 2011, published 2013).

Structures are written as SMILES.

For data set [1] the following is noted: carriers of C allele compared to T/T homozygotes, ApoE rs7412.
The conditions of data set [2]: Met/Met (A/A) compared to Val/Val (G/G), COMT rs4680.

On to `Cc1cc2c(s1)Nc1ccccc1N=C2N1CCN(C)CC1` [olanzapine], for which the weight gain result in data set [1] was “likely to gain weight on olanzapine”. As for `Fc1ccc([C@@H]2CCNC[C@H]2COc2ccc3c(c2)OCO3)cc1` [paroxetine], in data set [2], the response with antidepressant result is on record as “Better response with antidepressant”.
